Laboratory results from patent US20070033677A1, “Plant sHSP gene bidirectional promoter and uses thereof” (National Taiwan University, priority 2005, published 2007).

Legend:
[1] = test system: Oshsp18.0 promoter; assay: Transient expression GUS activity assay, Oshsp18.0 promoter::GUS construct bombarded to rice coleoptiles; assay type: cell-based, Rice (Oryza sativa L. cv. Tainung No. 67); conditions: 5 mM Aze, 4 hours treatment; GUS normalized against luciferase internal control; FIG. 3A
Procedure: (§1) The coleoptile of a etiolated rice seedling was cut from embryonic root and positioned on the middle of a 10-cm Petri dish containing MS salts supplemented with 0.6% (w/v) agarose and 3% (w/v) sucrose. The mixture (in a 1:1 molar ratio) of a test DNA construct and a maize ubiquitin-luciferase internal control construct were coated onto the gold particles as follows: under continuous vortexing, the following were added in order to each […] of 3 mg gold particles (Shen et al., 1996): 5 μL of DNA (1 μg DNA), 10 μL of 2.5 M CaCl2, and 4 μL of 0.1 M spermidine (free-based, tissue-culture grade). Gold microcarriers (1.6-μm particle size, 30 mg) in a microcentrifuge tube were vortexed with […] 70% (v/v) ethanol for 3˜5 minutes and kept till precipitation for about 15 minutes. Then, after centrifuging for 5 seconds, the supernatant was discarded and washed three times with 1 ml of sterile de-ionized water. The gold particles were resuspended in 500 μL 50% (w/v) glycerol, and then dispensed in 50-μL aliquots (3 mg/50 μL) kept in −20° C. The gold particles coated with DNA were pelleted in an bench-top Eppendorf centrifuge at maximum speed for 5 seconds, discarded the supernatant, washed once with 70% (v/v) ethanol following by absolute ethanol, and resuspended in 20 μL absolute ethanol. […]

[2] = test system: Oshsp17.3 promoter; assay: Transient expression GUS activity assay, Oshsp17.3 promoter::GUS construct bombarded to rice coleoptiles; assay type: cell-based, Rice (Oryza sativa L. cv. Tainung No. 67); conditions: 5 mM Aze, 4 hours treatment; GUS normalized against luciferase internal control; FIG. 3A
Procedure: as §1

[3] = test system: bidirectional promoter of SEQ ID NO:5; conditions: 5% ethanol treatment; control coleoptiles under 28° C.; FIG. 3B
Procedure: as §1

Compound | induction of promoter (normalized GUS activity) [1] | induction of promoter (normalized GUS activity) [2] | expression of reporter gene (GUS staining) [3]
O=C(O)C1CCN1 (stereo not drawn) [Aze] | at least 7 fold | at least 7 fold | –
CCO [ethanol] | – | – | much more amount of reporter gene
